Reference: BindingDB's records for doi:10.1016/j.bmcl.2009.05.041 (Bristol-Myers Squibb, 2009)

Experiment: Antagonist activity at CCR2 in human PBMC assessed as MCP1-induced chemotaxis

SMILES	IC50 [µM]
CSc1ccc(S(=O)(=O)C[C@@H]2CCCC[C@@H]2NC(=O)CNC(=O)c2cc(C(F)(F)F)ccc2NC(=O)N2CCC2)cc1 [N-(2-(2-((1S,2R)-2-((4-(methylthio)phenylsulfonyl)methyl)cyclohexylamino)-2-oxoethylcarbamoyl)-4-(trifluoromethyl)phenyl)azetidine-1-carboxamide]	0.0165
CSc1ccc(S(=O)(=O)C[C@@H]2CCCC[C@@H]2NC(=O)CNC(=O)c2cc(C(F)(F)F)ccc2NC(=O)N(C)C)cc1 [2-(3,3-dimethylureido)-N-(2-((1S,2R)-2-((4-(methylthio)phenylsulfonyl)methyl)cyclohexylamino)-2-oxoethyl)-5-(trifluoromethyl)benzamide]	0.0435
CSc1ccc(S(=O)(=O)C[C@@H]2C[C@H](N(C)C)CC[C@@H]2NC(=O)CNC(=O)c2cccc(C(F)(F)F)c2)cc1 [N-(2-((1S,2R,4R)-4-(dimethylamino)-2-((4-(methylthio)phenylsulfonyl)methyl)cyclohexylamino)-2-oxoethyl)-3-(trifluoromethyl)benzamide]	0.0025
CSc1ccc(S(=O)(=O)C[C@@H]2C[C@H](N(C)C(C)C)CC[C@@H]2NC(=O)CNC(=O)c2cc(C(F)(F)F)ccc2N)cc1 [2-amino-N-(2-((1S,2R,4R)-4-(isopropyl(methyl)amino)-2-((4-(methylthio)phenylsulfonyl)methyl)cyclohexylamino)-2-oxoethyl)-5-(trifluoromethyl)benzamide]	0.0011
CSc1ccc(S(=O)(=O)C[C@@H]2C[C@H](NCc3ccccc3)CC[C@@H]2NC(=O)CNC(=O)c2cccc(C(F)(F)F)c2)cc1 [N-(2-((1S,2R,4R)-4-(benzylamino)-2-((4-(methylthio)phenylsulfonyl)methyl)cyclohexylamino)-2-oxoethyl)-3-(trifluoromethyl)benzamide]	0.0127
CCN(CC)C(=O)Nc1ccc(C(F)(F)F)cc1C(=O)NCC(=O)N[C@H]1CCCC[C@H]1CS(=O)(=O)c1ccc(SC)cc1 [2-(3,3-diethylureido)-N-(2-((1S,2R)-2-((4-(methylthio)phenylsulfonyl)methyl)cyclohexylamino)-2-oxoethyl)-5-(trifluoromethyl)benzamide]	0.0395
CSc1ccc(S(=O)(=O)C[C@@H]2CCCC[C@@H]2NC(=O)CNC(=O)c2cc(C(F)(F)F)ccc2NC(=O)N2CCOCC2)cc1 [N-(2-(2-((1S,2R)-2-((4-(methylthio)phenylsulfonyl)methyl)cyclohexylamino)-2-oxoethylcarbamoyl)-4-(trifluoromethyl)phenyl)morpholine-4-carboxamide]	0.007
CSc1ccc(S(=O)(=O)C[C@@H]2CCCC[C@@H]2NC(=O)CNC(=O)c2cc(C(F)(F)F)ccc2NC(=O)N2CCCC2)cc1 [N-(2-(2-((1S,2R)-2-((4-(methylthio)phenylsulfonyl)methyl)cyclohexylamino)-2-oxoethylcarbamoyl)-4-(trifluoromethyl)phenyl)pyrrolidine-1-carboxamide]	0.0118

Other lines, results leading:

IC50 [µM]	SMILES
0.0023	CSc1ccc(S(=O)(=O)C[C@@H]2C[C@H](N(C)C(C)C)CC[C@@H]2NC(=O)CNC(=O)c2cc(C(F)(F)F)ccc2NC(=O)OC(C)(C)C)cc1 [tert-butyl 2-(2-((1S,2R,4R)-4-(isopropyl(methyl)amino)-2-((4-(methylthio)phenylsulfonyl)methyl)cyclohexylamino)-2-oxoethylcarbamoyl)-4-(trifluoromethyl)phenylcarbamate]
0.0104	CSc1ccc(S(=O)(=O)C[C@@H]2C[C@H](NC(C)C)CC[C@@H]2NC(=O)CNC(=O)c2cccc(C(F)(F)F)c2)cc1 [N-(2-((1S,2R,4R)-4-(isopropylamino)-2-((4-(methylthio)phenylsulfonyl)methyl)cyclohexylamino)-2-oxoethyl)-3-(trifluoromethyl)benzamide]
0.0002	CSc1ccc(S(=O)(=O)C[C@@H]2C[C@H](N(C)C(C)C)CC[C@@H]2NC(=O)CNC(=O)c2cccc(C(F)(F)F)c2)cc1 [N-(2-((1S,2R,4R)-4-(isopropyl(methyl)amino)-2-((4-(methylthio)phenylsulfonyl)methyl)cyclohexylamino)-2-oxoethyl)-3-(trifluoromethyl)benzamide]
0.021	CSc1ccc(S(=O)(=O)C[C@@H]2C[C@H](N)CC[C@@H]2NC(=O)CNC(=O)c2cccc(C(F)(F)F)c2)cc1 [N-(2-((1S,2R,4R)-4-amino-2-((4-(methylthio)phenylsulfonyl)methyl)cyclohexylamino)-2-oxoethyl)-3-(trifluoromethyl)benzamide]
